Tests used:
A549 cells = experiment: A549 proliferation (viability) assay, Cell Titer Fluor, 72 hours; type: cell-based; conditions: Homo sapiens
Method in brief: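 Compound exposure lasted 72 h (final DMSO 0.5% v/v) on A549 cells plated at 1000 cells/well one day earlier. Cell Titer Fluor added, 30 min at 37 °C, fluorescence read; EC50 derived by four-parameter logistic curve fitting.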

[1] = biological target: T1, GLS1 (purified recombinant human GAC) (Homo sapiens, UniProt O94925); experiment: GLS1 enzymatic activity assay (dual-coupled, Amplex UltraRed/resorufin); type: biochemical
T1 sequence (O94925 55-598 isoform O94925-3 limits assumed): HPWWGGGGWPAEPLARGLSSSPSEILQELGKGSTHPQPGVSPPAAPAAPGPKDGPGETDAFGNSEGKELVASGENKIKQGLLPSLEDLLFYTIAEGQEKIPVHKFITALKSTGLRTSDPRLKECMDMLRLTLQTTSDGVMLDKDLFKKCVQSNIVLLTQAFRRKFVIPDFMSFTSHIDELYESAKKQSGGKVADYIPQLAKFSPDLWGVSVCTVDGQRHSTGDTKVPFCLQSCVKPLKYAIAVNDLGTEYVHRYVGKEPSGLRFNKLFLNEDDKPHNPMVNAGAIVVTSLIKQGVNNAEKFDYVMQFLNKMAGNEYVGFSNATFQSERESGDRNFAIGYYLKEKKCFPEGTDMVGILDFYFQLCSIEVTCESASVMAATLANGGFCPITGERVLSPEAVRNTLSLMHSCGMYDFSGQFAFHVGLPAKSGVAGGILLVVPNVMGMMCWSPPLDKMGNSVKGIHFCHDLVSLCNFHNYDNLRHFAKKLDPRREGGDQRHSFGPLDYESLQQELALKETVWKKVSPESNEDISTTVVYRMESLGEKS
Method in brief: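 GAC activity measured by coupling glutamate to glutamate oxidase and HRP, generating resorufin from Amplex UltraRed. Enzyme (2 nM) preincubated with 50 mM potassium phosphate 10 min at room temperature, then inhibitor 10 min; 1 mM glutamine substrate, 1% DMSO. Fluorescence 530/590 nm, kinetic or 20-min endpoint; IC50 from four-parameter logistic fit.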

SMILES	EC50 (A549 cells)	IC50 [1]
O=C(Cc1ccccc1)Nc1ccn(CCC(F)Cn2cc(C(=O)NCc3ncccc3F)nn2)c(=O)c1 (stereo not shown) [Example 151, 1-{2-fluoro-4-[2-oxo-4-(2-phenylacetamido)-1,2-dihydropyridin-1-yl]butyl}-N-[(3-fluoropyridin-2-yl)methyl]-1H-1,2,3-triazole-4-carboxamide]	0.5 to 5 µM	0.1 to 0.5 µM
O=C(NCc1cccc(C(F)(F)F)c1)c1cn(CCCCn2ccc(NC(=O)C3CCCCC3)cc2=O)nn1 [Example 152, 1-[4-(4-cyclohexaneamido-2-oxo-1,2-dihydropyridin-1-yl)butyl]-N-{[3-(trifluoromethyl)phenyl]methyl}-1H-1,2,3-triazole-4-carboxamide]	0.1 to 0.5 µM	< 0.1 µM
O=C(CC1CCCC1)Nc1ccn(CCCCn2cc(C(=O)NCc3cccc(C(F)(F)F)c3)nn2)c(=O)c1 [Example 153, 1-{4-[4-(2-cyclopentylacetamido)-2-oxo-1,2-dihydropyridin-1-yl]butyl}-N-{[3-(trifluoromethyl)phenyl]methyl}-1H-1,2,3-triazole-4-carboxamide]	< 0.1 µM	< 0.1 µM
O=C(CC1CC1)Nc1ccn(CCCCn2cc(C(=O)NCc3cccc(C(F)(F)F)c3)nn2)c(=O)c1 [Example 154, 1-{4-[4-(2-cyclopropylacetamido)-2-oxo-1,2-dihydropyridin-1-yl]butyl}-N-{[3-(trifluoromethyl)phenyl]methyl}-1H-1,2,3-triazole-4-carboxamide]	0.5 to 5 µM	< 0.1 µM
O=C(CN1CCCC1=O)Nc1ccn(CCCCn2cc(C(=O)NCc3cccc(C(F)(F)F)c3)nn2)c(=O)c1 [Example 155, 1-(4-{2-oxo-4-[2-(2-oxopyrrolidin-1-yl)acetamido]-1,2-dihydropyridin-1-yl}butyl)-N-{[3-(trifluoromethyl)phenyl]methyl}-1H-1,2,3-triazole-4-carboxamide]	> 5 µM	0.1 to 0.5 µM
CCN1CCC(CC(=O)Nc2ccn(CCCCn3cc(C(=O)NCc4cccc(C(F)(F)F)c4)nn3)c(=O)c2)CC1 [Example 156, 1-(4-{4-[2-(1-ethylpiperidin-4-yl)acetamido]-2-oxo-1,2-dihydropyridin-1-yl}butyl)-N-{[3-(trifluoromethyl)phenyl]methyl}-1H-1,2,3-triazole-4-carboxamide]	0.5 to 5 µM	0.1 to 0.5 µM
O=C(Cn1ccccc1=O)Nc1ccn(CCCCn2cc(C(=O)NCc3cccc(C(F)(F)F)c3)nn2)c(=O)c1 [Example 157, 1-(4-{2-oxo-4-[2-(2-oxo-1,2-dihydropyridin-1-yl)acetamido]-1,2-dihydropyridin-1-yl}butyl)-N-{[3-(trifluoromethyl)phenyl]methyl}-1H-1,2,3-triazole-4-carboxamide]	> 5 µM	0.5 to 5 µM
Cc1ccc(CNC(=O)c2cn(CCCCn3ccc(NC(=O)Cc4ccccc4)cc3=O)nn2)cn1 [Example 158, N-[(6-methylpyridin-3-yl)methyl]-1-{4-[2-oxo-4-(2-phenylacetamido)-1,2-dihydropyridin-1-yl]butyl}-1H-1,2,3-triazole-4-carboxamide]	0.5 to 5 µM	< 0.1 µM
Cc1ccc(CNC(=O)c2cn(CCCCn3ccc(NC(=O)C4CCCC4)cc3=O)nn2)cn1 [Example 159, 1-[4-(4-cyclopentaneamido-2-oxo-1,2-dihydropyridin-1-yl)butyl]-N-[(6-methylpyridin-3-yl)methyl]-1H-1,2,3-triazole-4-carboxamide]	0.5 to 5 µM	0.1 to 0.5 µM
O=C(Cc1ccccc1)Nc1ccn(CC(F)CCn2cc(C(=O)NCc3cc(Br)ccn3)nn2)c(=O)c1 (stereo not shown) [Example 160, N-[(4-bromopyridin-2-yl)methyl]-1-{3-fluoro-4-[2-oxo-4-(2-phenylacetamido)-1,2-dihydropyridin-1-yl]butyl}-1H-1,2,3-triazole-4-carboxamide]	0.5 to 5 µM	< 0.1 µM
O=C(Cc1ccccc1)Nc1ccn(CC(F)CCn2cc(C(=O)NCc3cc(C(F)(F)F)ccn3)nn2)c(=O)c1 (stereo not shown) [Example 161, 1-{3-fluoro-4-[2-oxo-4-(2-phenylacetamido)-1,2-dihydropyridin-1-yl]butyl}-N-{[4-(trifluoromethyl)pyridin-2-yl]methyl}-1H-1,2,3-triazole-4-carboxamide]	0.1 to 0.5 µM	< 0.1 µM
Cc1cccc(CNC(=O)c2cn(CCC(F)Cn3ccc(NC(=O)Cc4ccccc4)cc3=O)nn2)n1 (stereo not shown) [Example 162, 1-{3-fluoro-4-[2-oxo-4-(2-phenylacetamido)-1,2-dihydropyridin-1-yl]butyl}-N-[(6-methylpyridin-2-yl)methyl]-1H-1,2,3-triazole-4-carboxamide]	0.5 to 5 µM	< 0.1 µM
O=C(Cc1ccccc1)Nc1ccn(CCC(F)Cn2cc(C(=O)NCc3cc(Br)ccn3)nn2)c(=O)c1 (stereo not shown) [Example 163, N-[(4-bromopyridin-2-yl)methyl]-1-{2-fluoro-4-[2-oxo-4-(2-phenylacetamido)-1,2-dihydropyridin-1-yl]butyl}-1H-1,2,3-triazole-4-carboxamide]	0.1 to 0.5 µM	< 0.1 µM
O=C(Cc1ccccc1)Nc1ccn(CCC(F)Cn2cc(C(=O)NCc3cc(C(F)(F)F)ccn3)nn2)c(=O)c1 (stereo not shown) [Example 164, 1-{2-fluoro-4-[2-oxo-4-(2-phenylacetamido)-1,2-dihydropyridin-1-yl]butyl}-N-{[4-(trifluoromethyl)pyridin-2-yl]methyl}-1H-1,2,3-triazole-4-carboxamide]	0.1 to 0.5 µM	< 0.1 µM
Cc1cccc(CNC(=O)c2cn(CC(F)CCn3ccc(NC(=O)Cc4ccccc4)cc3=O)nn2)n1 (stereo not shown) [Example 165, 1-{2-fluoro-4-[2-oxo-4-(2-phenylacetamido)-1,2-dihydropyridin-1-yl]butyl}-N-[(6-methylpyridin-2-yl)methyl]-1H-1,2,3-triazole-4-carboxamide]	0.5 to 5 µM	< 0.1 µM
O=C(CC1CCC(F)(F)CC1)Nc1ccn(CCCCn2cc(C(=O)NCc3cccc(OC(F)(F)F)c3)nn2)c(=O)c1 [Example 166, 1-(4-{4-[2-(4,4-difluorocyclohexyl)acetamido]-2-oxo-1,2-dihydropyridin-1-yl}butyl)-N-{[3-(trifluoromethoxy)phenyl]methyl}-1H-1,2,3-triazole-4-carboxamide]	< 0.1 µM	< 0.1 µM
O=C(NCc1cccc(OC(F)(F)F)c1)c1cn(CCCCn2ccc(NC(=O)C(F)c3ccccc3)cc2=O)nn1 (stereo not shown) [Example 167, 1-{4-[4-(2-fluoro-2-phenylacetamido)-2-oxo-1,2-dihydropyridin-1-yl]butyl}-N-{[3-(trifluoromethoxy)phenyl]methyl}-1H-1,2,3-triazole-4-carboxamide]	< 0.1 µM	< 0.1 µM
O=C(CC1CC1(F)F)Nc1ccn(CCCCn2cc(C(=O)NCc3cccc(OC(F)(F)F)c3)nn2)c(=O)c1 (stereo not shown) [Example 168, 1-(4-{4-[2-(2,2-difluorocyclopropyl)acetamido]-2-oxo-1,2-dihydropyridin-1-yl}butyl)-N-{[3-(trifluoromethoxy)phenyl]methyl}-1H-1,2,3-triazole-4-carboxamide]	0.5 to 5 µM	< 0.1 µM
O=C(CC1CCSCC1)Nc1ccn(CCCCn2cc(C(=O)NCc3cccc(OC(F)(F)F)c3)nn2)c(=O)c1 [Example 169, 1-(4-{2-oxo-4-[2-(thian-4-yl)acetamido]-1,2-dihydropyridin-1-yl}butyl)-N-{[3-(trifluoromethoxy)phenyl]methyl}-1H-1,2,3-triazole-4-carboxamide]	0.1 to 0.5 µM	< 0.1 µM
COC1CCC(CC(=O)Nc2ccn(CCCCn3cc(C(=O)NCc4cccc(OC(F)(F)F)c4)nn3)c(=O)c2)CC1 (stereo not shown) [Example 170, 1-(4-{4-[2-(4-methoxycyclohexyl)acetamido]-2-oxo-1,2-dihydropyridin-1-yl}butyl)-N-{[3-(trifluoromethoxy)phenyl]methyl}-1H-1,2,3-triazole-4-carboxamide]	0.1 to 0.5 µM	< 0.1 µM
O=C(Cc1ccccc1)Nc1cnn(CCCCn2cc(C(=O)NCc3cccc(OC(F)(F)F)c3)nn2)c(=O)c1 [Example 172, 1-{4-[6-oxo-4-(2-phenylacetamido)-1,6-dihydropyridazin-1-yl]butyl}-N-{[3-(trifluoromethoxy)phenyl]methyl}-1H-1,2,3-triazole-4-carboxamide]	0.5 to 5 µM	0.1 to 0.5 µM
O=C(Cc1ccccc1)Nc1ccn(CCCCn2cc(C(=O)NCc3cccc(OC(F)(F)F)c3)nn2)c(=O)c1F [Example 173, 1-{4-[3-fluoro-2-oxo-4-(2-phenylacetamido)-1,2-dihydropyridin-1-yl]butyl}-N-{[3-(trifluoromethoxy)phenyl]methyl}-1H-1,2,3-triazole-4-carboxamide]	< 0.1 µM	< 0.1 µM
O=C(Nc1ccn(CCCCn2cc(C(=O)NCc3cccc(OC(F)(F)F)c3)nn2)c(=O)c1)OC1CCC(F)(F)CC1 [Example 174, 4,4-difluorocyclohexyl N-(2-oxo-1-{4-[4-({[3-(trifluoro-methoxy)phenyl]methyl}carbamoyl)-1H-1,2,3-triazol-1-yl]butyl}-1,2-dihydropyridin-4-yl)carbamate]	0.1 to 0.5 µM	< 0.1 µM

Source: US20160002204A1 (Board of Regents, The University of Texas System, priority 2014, published 2016)
